Laboratory results reported in patent US20090304712A1, “Neuronal Cell Death Inhibitor and Screening Method” (NATIONAL UNIVERSITY CORPORATION NAGOYA UNIVERSITY, priority 2006, published 2009).

Legend:
[1] = tested on: mouse cerebral cortex primary neurons; experiment: Neuritic beading degeneration in neurons incubated with activated microglia conditioned medium; type: cell-based; conditions: for number of neurons with neuritic beading degeneration: 24 h
Description: (§1) Mouse primary microglia were isolated from primary mixed glial cell cultures (obtained from newborn C57BL/6J mice brains) by the ‘shaking off’ method on the 14th culture day or later (Suzumura, A. et al. MHC antigen expression on bulk isolated macrophage-microglia from newborn mouse brain: induction of 1a antigen expression by gamma-interferon. J. Neuroimmunol. 15, 263-278 (1987)).
In addition, mouse cerebral cortex primary neurons were prepared from the cerebral cortices of C57BL/6J mice at embryonic 17th day, and were plated on poly-ethyleneimine (PEI)-coated cover slips. Neurons were used at 10th to 13th culture day (Takeuchi et al. Neuritic beading induced by activated microglia is an early feature of neuronal dysfunction toward neuronal death by inhibition of mitochondrial respiration and axonal transport. J. Biol. Chem. 280, 10444-10454 (2005)).
(§2) Microglia were cultured with the culture medium (approximately 5×10^4 cells/well, Neuron Medium (manufactured by Sumitomo Bakelite Co., LTD.) administered with 1 μg/ml of LPS or 100 ng/ml of cytokines (IL-1β, IL-6, IL-10, IFN-γ, or TNF-α), respectively. Microglia were incubated under 100% humidity and 5% CO2 at 37° C. for 24 hours. Note that as a control, microglia were cultured similarly except that no cytokine was added.
Neurons in a 24-well plate (5×10^4 cells/well) were incubated with 500 μl of conditioned medium of microglia activated as above. […]
(§3) The various neurons obtained as above were cultured for 24 hours, then, neurons in each well were measured for both the number of neurons with neuritic beading degeneration and the number of dead neurons. […] The ratio of neurons with neuritic beading degeneration was calculated as a percentage of total neurons. Note that neurons in duplicate wells were assessed blindly in three independent trials. In addition, the number of dead neurons was assessed by the dye-exclusion method with propidium iodide (PI). […] The ratio of dead neurons was calculated as a percentage of PI-positive cells among total neurons.

[2] = tested on: ischemia-induced delayed neuronal cell death model; experiment: Ischemia-induced delayed neuronal cell death model; type: in vivo, Mongolian gerbils; conditions: for delayed neuronal cell death (micrographs of hippocampal CA1, FIG. 15) / number of surviving neurons per 100 μm in the hippocampal CA1 region: 7 days after ischemia; for number of surviving neurons per 100 μm in the hippocampal CA1 region: p<0.001 versus control
Description: In the present example, the effect of gap junction inhibitor and glutaminase inhibitor on neuronal cell death was evaluated using ischemia-induced delayed neuronal cell death model. Note that all protocols were approved by the Animal Experiment Committee of Nagoya University. Note that the animal model in the present example corresponds to a model of ischemic disorder, which is a nervous system disease.
According to reference by Imai et al. (Imai F, Sawada M, Suzuki H, Zlokovic B V, Kojima J, Kuno S, Nagatsu T, Nitatori T, Uchiyama Y, Kanno T., Exogenous microglia enter the brain and migrate into ischemic hippocampal lesions. et al. Neuroscience Letter. 272 (2): 127-130. 1999)□ adult male Mongolian gerbils, 10-12 weeks old and weighing approximately 70 g, were anesthetized with sevoflurane maintaining rectal temperature at 37° C. Global forebrain ischemia was produced transiently by occluding both common carotid arteries for 5 minutes using aneurysm clips.
Administration of the gap junction inhibitor carbenoxolone (CBX) was carried out in the following three groups. That is to say, the doses were 20 mg/kg body weight (CBX1), 2 mg/kg body weight (CBX1/10) and 0.2 mg/kg body weight (CBX1/100). Administration of the glutaminase inhibitor 6-diazo-5-oxo-L norleucine (DON) was carried out in the following three groups. That is to say, the doses were 1.6 mg/kg body weight (DON1), 0.16 mg/kg body weight (DON1/10) and 0.016 mg/kg body weight (DON1/100). CBX or DON was administered intraperitoneally every other day from the day of ischemia. Note that control animals were injected with the equal volume of phosphate-buffered saline (PBS).
Seven days after ischemia, gerbils were anesthetized and transcardically perfused with 4% paraformaldehyde in PBS. The brains were removed, embedded in O.C.T. compound (manufactured by Sakura Finetech) and then frozen in liquid nitrogen. Frozen sections were prepared with a cryostat (8 μm thick), were mounted onto a slide glass and were stained with haematoxylin and eosin. To assess the effect of drug treatment on delayed neuronal death, the number of surviving neurons per 100 μm in the hippocampal CA1 region was counted under a microscope.

activated microglia = experiment: Glutamate concentration in neuron culture medium (glutamate released from activated microglia), colorimetric assay; type: cell-based, mouse; conditions: 24 h; for extracellular glutamate concentration: versus no drug (TNF)
Description: as §1, §2
Neurons in a 24-well plate (5×10^4 cells/well) were incubated with 500 μl of conditioned medium of microglia activated as above. Neurons were administered similarly non-activated microglia conditioned medium to serve as a control for the indirect stimulation group. […]
In the present example, the amount of glutamate released from microglia stimulated with various cytokines, intracellular ATP concentration and mitochondrial damage in neurons incubated with conditioned medium were measured. […]
After incubation for 24 hours as above, the concentration of glutamate in the conditioned medium of each neuronal culture well was measured using Glutamate Assay Kit colorimetric assay (manufactured by Yamasa Corporation) according to the protocol thereof, measuring the absorption at 600 nm in a multiplate reader. […]
The various neurons prepared as above were cultured for 24 hours, then, glutamate concentration, the numbers of neurons with neuritic beading degeneration and dead neurons were measured for neurons in each neuronal culture well. Quantification of glutamate concentration was carried out similarly to Example 2, measurements of the numbers of neurons with neuritic beading degeneration and dead neurons were carried out similarly to Example 1. […]

[3] = tested on: experimental autoimmune encephalomyelitis (EAE) model; experiment: MOG-induced experimental autoimmune encephalomyelitis (EAE) model; type: in vivo, C57BL/6J mice; conditions: for EAE onset day (EAE clinical score becomes 1 or greater) / number of severe sick days (EAE clinical score four or greater): p<0.05
[4] = tested on: mouse cerebral cortex primary neurons; experiment: Dead neurons (propidium iodide dye-exclusion) in neurons incubated with activated microglia conditioned medium; type: cell-based; conditions: 24 h
Description: as §1
In addition, mouse cerebral cortex primary neurons were prepared from the cerebral cortices of C57BL/6J mice at embryonic 17th day, and were plated on poly-ethyleneimine (PEI)-coated cover slips. […]
as §3

[5] = tested on: mouse cerebral cortex primary neurons; experiment: Neuronal mitochondrial damage, MTS assay; type: cell-based; conditions: conditioned medium of microglia treated with 100 ng/ml TNF-α; 24 h
Description: (§4) In the present example, the amount of glutamate released from microglia stimulated with various cytokines, intracellular ATP concentration and mitochondrial damage in neurons incubated with conditioned medium were measured. […] The evaluations were carried out by the following methods.
After incubation for 24 hours as above, the extent of neuronal mitochondria damage in each neuronal culture well was measured using CellTiter96 Aqueous One Solution assay (manufactured by Promega) according to the protocol, performing the MTS method, measuring the absorption at 490 nm in a multiplate reader. Note that the assays were carried out in six independent trials.

connexin-32 (C×32) = experiment: Microglial cell surface expression of connexin-32 by flow cytometry; type: cell-based, mouse; conditions: microglia stimulated with 100 ng/ml TNF-α, 24 h
Description: In the present example, an analysis of LPS- or TNF-α-stimulated microglial cell surface expression of connexin-32 (C×32), which is a major constitutive component of gap junction, was carried out with a flow cytometer. The preparation of microglia was carried out similarly to Example 1, and microglia activation was carried out similarly to Example 4. To Detect C×32 anti-mouse C×32 antibody (manufactured by Chemicon) was used.

[6] = tested on: mouse cerebral cortex primary neurons; experiment: Neuronal intracellular ATP concentration, chemiluminescent method; type: cell-based; conditions: conditioned medium of microglia treated with 100 ng/ml TNF-α; 24 h
Description: as §4
After incubation of the various neurons obtaine for 24 hours as above, intracellular ATP in each neuronal culture well was measured using AposSENSOR Cell Viability Assay Kit (manufactured by Bio Vision) according to the protocol thereof, by the chemiluminescent method. ATP concentration was calculated as a percentage of control.

[7] = 100 μM CBX with activated microglia conditioned medium
[8] = CBX 0.2, 2, 20 mg/kg i.p. every other day
[9] = CBX1/10: 2 mg/kg i.p. every other day
[10] = 1 mM DON with activated microglia conditioned medium
[11] = DON 0.016, 0.16, 1.6 mg/kg i.p. every other day
[12] = DON1: 1.6 mg/kg i.p. every other day

Chain of connexin-32 (C×32) (P28230 whole entry): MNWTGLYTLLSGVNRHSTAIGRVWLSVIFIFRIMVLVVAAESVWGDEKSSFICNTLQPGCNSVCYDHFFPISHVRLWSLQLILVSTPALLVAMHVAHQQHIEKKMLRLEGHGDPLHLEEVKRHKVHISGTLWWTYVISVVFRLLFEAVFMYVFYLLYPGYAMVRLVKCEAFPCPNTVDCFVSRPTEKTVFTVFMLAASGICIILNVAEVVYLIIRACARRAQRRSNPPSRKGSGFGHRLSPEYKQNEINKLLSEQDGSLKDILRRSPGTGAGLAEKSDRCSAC

Compound: CC1(C)[C@@H](OC(=O)CCC(=O)O)CC[C@]2(C)[C@H]3C(=O)C=C4[C@@H]5C[C@@](C)(C(=O)O)CC[C@]5(C)CC[C@@]4(C)[C@]3(C)CC[C@@H]12 [CBX, carbenoxolone disodium]
- number of neurons with neuritic beading degeneration [1, 7]: inhibitory action
- delayed neuronal cell death (micrographs of hippocampal CA1, FIG. 15) ([2]; CBX 0.2, 2, 20 mg/kg body weight i.p. every other day from day of ischemia): clearly inhibited
- dose dependence of decrease in neuronal death [2, 8]: dose-dependent manner
- number of surviving neurons per 100 μm in the hippocampal CA1 region [2, 8]: significantly protected
- extracellular glutamate concentration (activated microglia; [7]): reduced to the control level
- EAE clinical symptoms (clinical score course, FIG. 17) ([3]; CBX 0.2, 2, 20 mg/kg i.p. every other day from day of immunization): inhibited
- peak clinical score [3, 9]: significantly decreased
- EAE onset day (EAE clinical score becomes 1 or greater) [3, 9]: significantly delayed
- number of severe sick days (EAE clinical score four or greater) [3, 9]: significantly reduced
- number of dead neurons [4, 7]: inhibitory action

Compound: [N-]=[N+]=CC(=O)CC[C@H](N)C(=O)O [DON, 6-diazo-5-oxo-L-norleucine]
- number of neurons with neuritic beading degeneration [1, 10]: inhibitory action
- delayed neuronal cell death (micrographs of hippocampal CA1, FIG. 15) ([2]; DON 0.016, 0.16, 1.6 mg/kg body weight i.p. every other day from day of ischemia): clearly inhibited
- dose dependence of decrease in neuronal death [2, 11]: dose-dependent manner
- number of surviving neurons per 100 μm in the hippocampal CA1 region [2, 11]: significantly protected
- extracellular glutamate concentration (activated microglia; [10]): reduced to the control level
- EAE clinical symptoms (clinical score course, FIG. 17) ([3]; DON 0.016, 0.16, 1.6 mg/kg i.p. every other day from day of immunization): inhibited
- EAE onset day (EAE clinical score becomes 1 or greater) [3, 12]: significantly delayed
- number of severe sick days (EAE clinical score four or greater) [3, 12]: significantly reduced
- number of dead neurons [4, 10]: inhibitory action

Compound: TNF-α
- extent of mitochondrial damage (MTS) [5]: significantly mild
- ratio of neurons with neuritic beading degeneration as a percentage of total neurons ([1]; indirect stimulation: conditioned medium of microglia treated with 100 ng/ml cytokine for 24 h, neurons cultured 24 h): approximately 100%
- expression of gap junction (C×32) onto the cell surface of microglia (connexin-32 (C×32)): augmented
- glutamate concentration in neuron culture medium (activated microglia; conditioned medium of microglia treated with 100 ng/ml TNF-α): significantly high concentration
- neuronal intracellular ATP concentration [6]: significantly low
